Counter-ions that a name gives are not always drawn.

The target in the assay is T1, Nav1.7 (or SCN9A) channel (Homo sapiens, UniProt Q15858).
T1 construct: expressed in transfected cells
T1 sequence (Q15858 whole entry): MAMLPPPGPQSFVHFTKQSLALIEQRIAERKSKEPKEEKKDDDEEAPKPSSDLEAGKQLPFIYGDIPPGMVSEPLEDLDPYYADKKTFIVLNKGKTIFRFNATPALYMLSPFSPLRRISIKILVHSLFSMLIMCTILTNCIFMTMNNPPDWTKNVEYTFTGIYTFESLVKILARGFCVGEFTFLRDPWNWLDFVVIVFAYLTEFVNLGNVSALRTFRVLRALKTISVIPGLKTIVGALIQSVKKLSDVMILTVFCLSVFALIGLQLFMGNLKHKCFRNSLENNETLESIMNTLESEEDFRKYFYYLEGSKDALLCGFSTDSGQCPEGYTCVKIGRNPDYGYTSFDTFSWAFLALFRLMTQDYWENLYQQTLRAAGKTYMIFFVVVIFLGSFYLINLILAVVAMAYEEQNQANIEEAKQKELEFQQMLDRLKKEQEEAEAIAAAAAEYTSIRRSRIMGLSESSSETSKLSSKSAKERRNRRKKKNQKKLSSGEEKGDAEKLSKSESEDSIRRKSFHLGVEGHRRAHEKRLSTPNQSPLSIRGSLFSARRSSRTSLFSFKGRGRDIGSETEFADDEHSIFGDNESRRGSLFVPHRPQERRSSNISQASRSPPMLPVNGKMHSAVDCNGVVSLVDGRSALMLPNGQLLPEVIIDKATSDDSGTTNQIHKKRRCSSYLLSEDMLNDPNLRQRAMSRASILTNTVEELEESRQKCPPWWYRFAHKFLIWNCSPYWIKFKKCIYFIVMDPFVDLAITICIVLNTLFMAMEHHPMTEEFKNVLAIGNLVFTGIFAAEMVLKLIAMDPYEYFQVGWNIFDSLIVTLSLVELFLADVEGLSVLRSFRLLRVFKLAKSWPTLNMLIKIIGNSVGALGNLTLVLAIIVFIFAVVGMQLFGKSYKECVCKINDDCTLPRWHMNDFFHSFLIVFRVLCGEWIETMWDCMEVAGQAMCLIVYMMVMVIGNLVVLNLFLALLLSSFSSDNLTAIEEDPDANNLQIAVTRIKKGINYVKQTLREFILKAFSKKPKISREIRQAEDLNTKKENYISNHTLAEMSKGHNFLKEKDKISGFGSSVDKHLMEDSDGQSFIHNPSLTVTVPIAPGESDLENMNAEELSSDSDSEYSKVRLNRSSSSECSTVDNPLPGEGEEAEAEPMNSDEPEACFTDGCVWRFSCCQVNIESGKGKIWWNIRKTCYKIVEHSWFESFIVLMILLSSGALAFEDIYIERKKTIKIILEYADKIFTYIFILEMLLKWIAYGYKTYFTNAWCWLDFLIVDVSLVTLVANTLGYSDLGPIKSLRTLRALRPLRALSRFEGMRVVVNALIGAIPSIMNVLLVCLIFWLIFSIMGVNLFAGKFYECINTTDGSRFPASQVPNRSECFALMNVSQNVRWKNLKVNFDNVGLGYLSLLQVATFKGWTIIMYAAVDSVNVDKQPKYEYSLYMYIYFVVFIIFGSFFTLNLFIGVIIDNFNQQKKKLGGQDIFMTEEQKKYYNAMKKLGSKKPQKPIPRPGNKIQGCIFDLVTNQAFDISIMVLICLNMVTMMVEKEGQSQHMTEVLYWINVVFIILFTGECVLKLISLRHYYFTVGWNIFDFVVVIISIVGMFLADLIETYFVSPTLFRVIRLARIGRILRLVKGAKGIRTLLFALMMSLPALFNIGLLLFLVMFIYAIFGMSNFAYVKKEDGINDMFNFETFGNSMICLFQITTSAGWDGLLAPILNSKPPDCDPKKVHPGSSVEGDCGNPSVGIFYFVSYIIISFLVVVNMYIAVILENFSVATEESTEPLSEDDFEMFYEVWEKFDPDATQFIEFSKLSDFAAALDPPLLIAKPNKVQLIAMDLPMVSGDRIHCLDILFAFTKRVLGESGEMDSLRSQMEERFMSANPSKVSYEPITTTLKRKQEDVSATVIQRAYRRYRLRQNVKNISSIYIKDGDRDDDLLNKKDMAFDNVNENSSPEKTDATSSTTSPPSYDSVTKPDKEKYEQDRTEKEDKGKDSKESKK
The experiment in a line: Nav1.7 (hSCN9A) PatchXpress electrophysiology assay. The format is cell-based. To be noted: estimated IC50 calculated from single point electrophysiology data; PatchXpress platform; HEK cells stably expressing hSCN9A; held at V1/2 of inactivation; read-out: Nav1.7 EIC50. As to the method:
The ability of the compounds of formula (I) to block the Nav1.7 (or SCN9A) channel were measured using the assay described below.
Human Embryonic Kidney (HEK) cells were transfected with an hSCN9A construct using lipofectamine reagent (Invitrogen), using standard techniques. Cells stably expressing the hSCN9A constructs were identified by their resistance to G-418 (400 μg/ml). Clones were screened for expression using the whole-cell voltage-clamp technique.
HEK cells stably transfected with hSCN9A were maintained in DMEM medium supplemented with 10% heat-inactivated fetal bovine serum and 400 μg/ml G-418 in an incubator at 37° C. with a humidified atmosphere of 10% CO2. For HTS, cells were harvested from flasks by trypsinization and replated in an appropriate multi-well plate (typically 96 or 384 wells/plate) such that confluence would be achieved within 24 hours of plating. For electrophysiological studies, cells were removed from the culture flask by brief trypsinization and re-plated at low density onto glass cover slips. Cells were typically used for electrophysiological experiments within 24 to 72 hours after plating.
Cover slips containing HEK cells expressing hSCN9A were placed in a bath on the stage of an inverted microscope and perfused (approximately 1 ml/minutes) with extracellular solution of the following composition: 138 mM NaCl, 2 mM CaCl2, 5.4 mM KCl, 1 mM MgCl2, 10 mM glucose, and 10 mM HEPES, pH 7.4, with NaOH. […] The osmolarity of the extracellular and intracellular solutions was 300 mOsm/kg and 295 mOsm/kg, respectively. All recordings were made at room temperature (22-24° C.) using AXOPATCH 200B amplifiers and PCLAMP software (Axon Instruments, Burlingame, Calif.).
hSCN9A currents in HEK cells were measured using the whole-cell configuration of the patch-clamp technique (Hamill et al., 1981). Uncompensated series resistance was typically 2 to 5 mega ohms and >85% series resistance compensation was routinely achieved. As a result, voltage errors were negligible and no correction was applied. Current records were acquired at 20 to 50 KHz and filtered at 5 to 10 KHz.
HEK cells stably transfected with hSCN9A were viewed under Hoffman contrast optics and placed in front of an array of flow pipes emitting either control or compound-containing extracellular solutions. All compounds were dissolved in dimethyl sulfoxide to make 10 mM stock solutions, which were then diluted into extracellular solution to attain the final concentrations desired. […] The voltage-dependence of inactivation was determined by applying a series of depolarizing prepulses (8 sec long in 10 mV increments) from a negative holding potential. The voltage was then immediately stepped to 0 mV to assess the magnitude of the sodium current. Currents elicited at 0 mV were plotted as a function of prepulse potential to allow estimation of the voltage at which 50% of the channels were inactivated (midpoint of inactivation or V½). Compounds were tested for their ability to inhibit hSCN9A sodium channels by activating the channel with a 20 msec voltage step to 0 mV following an 8 second conditioning prepulse to the empirically determined V½. Compound effect (% inhibition) was determined by difference in current amplitude before and after application of test compounds. For ease of comparison, “estimated IC-50” (EIC50) values were calculated from single point electrophysiology data by the following equation, (tested concentration, uM)×(100-% inhibition/% inhibition). Inhibition values <20% and >80% were excluded from the calculation.
Electrophysiological assays were conducted with PatchXpress 7000 hardware and associated software (Molecular Devices Corp). All assay buffers and solutions were identical to those used in conventional whole-cell voltage clamp experiments described above. hSCN9A cells were grown as above to 50%-80% confluency and harvested by trypsinization. […]
As for `O=S(=O)(Nc1nncs1)c1cc(Cl)c(Sc2ccc(C(F)(F)F)cc2-c2ccnnc2)cc1F` [Example 19, 5-Chloro-2-fluoro-4-{[2-pyridazin-4-yl-4-(trifluoromethyl)phenyl]thio}-N-1,3,4-thiadiazol-2-ylbenzenesulfonamide], the IC50 is 45 nM.

On to `COc1ccccc1Sc1ccc(S(=O)(=O)Nc2ncns2)cc1C#N` [Example 12, 3-cyano-4-[(2-methoxyphenyl)thio]-N-1,2,4-thiadiazol-5-ylbenzenesulfonamide], for which the IC50 was 320 nM.

`N#Cc1cc(S(=O)(=O)Nc2ncns2)ccc1Cc1ccc(C(F)(F)F)cc1-c1ccnnc1` [Example 22, 3-Cyano-4-[2-pyridazin-4-yl-4-(trifluoromethyl)benzyl]-N-1,2,4-thiadiazol-5-ylbenzenesulfonamide]: the IC50 was 140 nM.

For `Nc1cc(-c2cc(C(F)(F)F)ccc2Sc2cc(F)c(S(=O)(=O)Nc3nncs3)cc2Cl)ccn1` [Example 20, 4-{[2-(2-Aminopyridin-4-yl)-4-(trifluoromethyl)phenyl]thio}-5-chloro-2-fluoro-N-1,3,4-thiadiazol-2-ylbenzenesulfonamide hydrochloride], the IC50 was 33 nM.

Regarding `O=S(=O)(Nc1nncs1)c1cc(Cl)c(Sc2cccc(F)c2)cc1F` [Example 6, 5-chloro-2-fluoro-4-[(3-fluorophenyl)thio]-N-1,3,4-thiadiazol-2-ylbenzenesulfonamide], the IC50 was 3300 nM.

As to `N#Cc1cc(S(=O)(=O)Nc2ncns2)ccc1Sc1ccc(C(F)(F)F)cc1` [Example 14, 3-cyano-N-1,2,4-thiadiazol-5-yl-4-{[4-(trifluoromethyl)phenyl]thio}benzenesulfonamide], the IC50 was 190 nM.

In the case of `COc1ccc(Sc2ccc(S(=O)(=O)Nc3ncns3)cc2C#N)cc1` [Example 11, 3-cyano-4-[(4-methoxyphenyl)thio]-N-1,2,4-thiadiazol-5-ylbenzenesulfonamide], the IC50 is above 3000 nM.

On to `N#Cc1cc(S(=O)(=O)Nc2ncns2)ccc1Sc1ccccc1C(F)(F)F` [Example 16, 3-Cyano-N-1,2,4-thiadiazol-5-yl-4-{[2-(trifluoromethyl)phenyl]thio}benzenesulfonamide], for which the IC50 was 930 nM.

Take `COc1ccccc1Sc1cc(F)c(S(=O)(=O)Nc2nncs2)cc1Cl` [Example 8, 5-chloro-2-fluoro-4-[(2-methoxyphenyl)thio]-N-1,3,4-thiadiazol-2-ylbenzenesulfonamide]: the IC50 is 250 nM.

`O=S(=O)(Nc1nncs1)c1cc(Cl)c(Sc2ccccc2C(F)(F)F)cc1F` [Example 5, 5-chloro-2-fluoro-N-1,3,4-thiadiazol-2-yl-4-{[2-(trifluoromethyl)phenyl]thio}benzenesulfonamide]: the IC50 is 5080 nM.

Regarding `Nc1cc(-c2cc(C(F)(F)F)ccc2Sc2cc(F)c(S(=O)(=O)Nc3ncccn3)cc2Cl)ccn1` [Example 24, 4-{[2-(2-Aminopyridin-4-yl)-4-(trifluoromethyl)phenyl]thio}-5-chloro-2-fluoro-N-pyrimidin-2-ylbenzenesulfonamide], the IC50 was 72 nM.

For the compound `O=S(=O)(Nc1nncs1)c1cc(Cl)c(Sc2ccc(F)c(F)c2)cc1F` [Example 9, 5-chloro-4-[(3,4-difluorophenyl)thio]-2-fluoro-N-1,3,4-thiadiazol-2-ylbenzenesulfonamide], the IC50 is 2300 nM.

As to `N#Cc1cc(S(=O)(=O)Nc2ncns2)ccc1Sc1cccc(C(F)(F)F)c1` [Example 13, 3-cyano-N-1,2,4-thiadiazol-5-yl-4-{[3-(trifluoromethyl)phenyl]thio}benzenesulfonamide], the IC50 was 840 nM.

Regarding `N#Cc1cc(S(=O)(=O)Nc2ncns2)ccc1Sc1ccccc1F` [Example 15, 3-Cyano-4-[(2-fluorophenyl)thio]-N-1,2,4-thiadiazol-5-ylbenzenesulfonamide], the IC50 was 920 nM.

For the compound `O=S(=O)(Nc1nncs1)c1cc(Cl)c(Sc2ccccc2F)cc1F` [Example 7, 5-chloro-2-fluoro-4-[(2-fluorophenyl)thio]-N-1,3,4-thiadiazol-2-ylbenzenesulfonamide], the IC50 is 3700 nM.

In the case of `COc1cc(C(F)(F)F)ccc1Cc1ccc(S(=O)(=O)Nc2ncns2)cc1C#N` [Example 21, 3-Cyano-4-[2-methoxy-4-(trifluoromethyl)benzyl]-N-1,2,4-thiadiazol-5-ylbenzenesulfonamide], the IC50 is 5.8 nM.

In the case of `O=S(=O)(Nc1nncs1)c1cc(Cl)c(Sc2cccc(C(F)(F)F)c2)cc1F` [Example 1, 5-Chloro-2-fluoro-N-1,3,4-thiadiazol-2-yl-4-{[3-(trifluoromethyl)phenyl]thio}benzenesulfonamide], the IC50 is 930 nM.

On to `COc1cccc(Sc2cc(F)c(S(=O)(=O)Nc3nncs3)cc2Cl)c1` [Example 4, 5-chloro-2-fluoro-4-[(3-methoxyphenyl)thio]-N-1,3,4-thiadiazol-2-ylbenzenesulfonamide], for which the IC50 is 1900 nM.

In the case of `COc1ccc(Sc2cc(F)c(S(=O)(=O)Nc3nncs3)cc2Cl)cc1` [Example 2, 5-Chloro-2-fluoro-4-[(4-methoxyphenyl)thio]-N-1,3,4-thiadiazol-2-ylbenzenesulfonamide], the IC50 was 2100 nM.

For the compound `COc1cccc(Sc2ccc(S(=O)(=O)Nc3ncns3)cc2C#N)c1` [Example 3, 3-Cyano-4-[(3-methoxyphenyl)thio]-N-1,2,4-thiadiazol-5-ylbenzenesulfonamide], the IC50 was 1000 nM.

For `N#Cc1cc(S(=O)(=O)Nc2ncns2)ccc1Sc1ccc(F)c(F)c1` [Example 17, 3-Cyano-4-[(3,4-difluorophenyl)thio]-N-1,2,4-thiadiazol-5-ylbenzenesulfonamide], the IC50 was 2200 nM.

On to `O=S(=O)(Nc1nncs1)c1cc(Cl)c(Sc2ccc(C(F)(F)F)cc2)cc1F` [Example 10, 5-chloro-2-fluoro-N-1,3,4-thiadiazol-2-yl-4-{[4-(trifluoromethyl)phenyl]thio}benzenesulfonamide], for which the IC50 was 5200 nM.

As to `N#Cc1cc(S(=O)(=O)Nc2ncns2)ccc1Sc1ccc(C(F)(F)F)cc1-c1ccnnc1` [Example 18, 3-Cyano-4-{[2-pyridazin-4-yl-4-(trifluoromethyl)phenyl]thio}-N-1,2,4-thiadiazol-5-ylbenzenesulfonamide], the IC50 is 70 nM.

These data come from US9096558B2, “N-sulfonylbenzamide compounds” (Pfizer Limited, priority 2010, dated 2015).
